Where “and” joins values, the source holds several entries; their conditions need not be identical. Identical values can stand only once.
How the values were obtained:
pKa = type: physicochemical
[1] = Plasma protein binding, human plasma; type: in vitro ADME
Protocol: (§1) Plasma stability and protein binding were measured using rat and human plasma.

rats [2] = assay: Single-dose toxicity in rats; conditions: rat, in vivo
Kinetic solubility = type: physicochemical; conditions: kinetic from dmso stock
PAMPA = type: in vitro ADME
rats [3] = conditions: rat, in vivo
[4] = Plasma stability, human plasma; type: in vitro ADME
Protocol: as §1

[5] = Pharmacokinetic test in dogs (Experimental Example 14); type: in vivo; conditions: dog, plasma; for bioavailability: read-out: Ft (bioavailability)
Protocol: (§2) Intravenous administration was performed through a tube inserted into the femoral vein, and oral administration was performed using oral gavage.
(§3) After the administration, the experimental animals' blood was taken at predetermined time intervals for 24 hours. Then, the blood was centrifuged to separate plasma. The plasma samples were pretreated with a suitable organic solvent, and then the concentration of the plasma samples was analyzed by LC-MS/MS. […] The results of noncompartmental pharmacokinetic parameters calculated from the blood concentration-time data are shown in Tables 9 through 13. In FIGS. 12 through 16, I.V. represents an intravenous administration group, P.O. represents an oral administration group, and the definition of each parameter in Tables 9 through 13 is shown in Table 14.

[6] = Plasma protein binding, rat plasma; type: in vitro ADME
Protocol: as §1

SPF Sprague Dawley rats = assay: Toxicity assay, intraperitoneal injection, rats; conditions: i.p. 20, 10 and 1 mg/kg
Protocol: (§4) The compounds synthesized in the examples of the present invention were assayed for cytotoxicity in animals.

[7] = system: histidine-requiring Salmonella (strains TA98, TA100, TA1535 and TA1537) and tryptophan-requiring Escherichia coli (strain WP2uvrA (pKM101)); type: cell-based
Description: In addition, for each strain, the number of back-mutant colonies in the positive control group certainly exceeded twice the number of back-mutant colonies in the negative control group.

each cell line = assay: Cytotoxicity, Cyto X cell viability assay kit; type: cell-based
[8] = Pharmacokinetic test in SD male rats (Experimental Examples 11, 12, 15); type: in vivo; conditions: plasma, rat; for Vd: read-out: Vss; for bioavailability: read-out: Ft (bioavailability)
Protocol: as §2, §3

Log P = type: physicochemical
Equilibrium solubility = type: physicochemical; conditions: thermodynamic from solid
[9] = Plasma stability, rat plasma; type: in vitro ADME
Protocol: as §1

hERG channel protein = hERG channel protein (Homo sapiens, UniProt Q12809); assay: hERG ligand binding assay (fluorescence polarization)
Chain of hERG channel protein (Q12809 whole entry): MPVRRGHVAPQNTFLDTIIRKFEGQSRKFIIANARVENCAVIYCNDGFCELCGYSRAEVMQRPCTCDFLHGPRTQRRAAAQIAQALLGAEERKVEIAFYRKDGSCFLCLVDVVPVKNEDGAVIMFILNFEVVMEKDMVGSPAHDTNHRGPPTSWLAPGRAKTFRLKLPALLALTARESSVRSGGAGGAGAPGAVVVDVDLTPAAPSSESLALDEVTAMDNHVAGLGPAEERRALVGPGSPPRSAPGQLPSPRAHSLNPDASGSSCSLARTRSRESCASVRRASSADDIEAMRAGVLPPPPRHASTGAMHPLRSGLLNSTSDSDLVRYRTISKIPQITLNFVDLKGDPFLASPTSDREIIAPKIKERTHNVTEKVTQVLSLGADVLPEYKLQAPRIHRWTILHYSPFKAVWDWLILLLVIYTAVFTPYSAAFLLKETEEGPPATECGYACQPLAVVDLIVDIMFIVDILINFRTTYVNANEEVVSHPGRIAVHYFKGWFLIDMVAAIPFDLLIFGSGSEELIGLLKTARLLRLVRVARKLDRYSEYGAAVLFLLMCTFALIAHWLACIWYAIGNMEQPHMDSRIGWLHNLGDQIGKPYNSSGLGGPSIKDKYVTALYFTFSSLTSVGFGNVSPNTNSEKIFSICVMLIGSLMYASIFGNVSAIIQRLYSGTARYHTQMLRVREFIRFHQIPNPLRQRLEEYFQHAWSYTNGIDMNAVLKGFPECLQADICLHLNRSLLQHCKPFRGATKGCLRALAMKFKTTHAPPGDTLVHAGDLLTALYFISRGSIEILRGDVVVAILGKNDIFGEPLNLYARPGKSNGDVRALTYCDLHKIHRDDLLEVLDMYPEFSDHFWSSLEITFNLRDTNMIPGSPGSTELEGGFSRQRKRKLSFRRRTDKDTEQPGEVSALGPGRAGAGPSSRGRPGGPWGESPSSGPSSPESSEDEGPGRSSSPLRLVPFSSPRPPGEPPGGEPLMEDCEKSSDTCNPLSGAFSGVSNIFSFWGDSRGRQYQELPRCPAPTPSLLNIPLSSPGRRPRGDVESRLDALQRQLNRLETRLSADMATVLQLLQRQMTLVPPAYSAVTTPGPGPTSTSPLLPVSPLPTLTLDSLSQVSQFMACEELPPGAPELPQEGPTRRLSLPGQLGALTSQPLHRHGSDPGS

ICR mice = assay: Toxicity assay, intraperitoneal injection, mice; conditions: i.p. 20, 10 and 1 mg/kg
Protocol: as §4

[10] = Pharmacokinetic test in ICR male mice (Experimental Example 13); type: in vivo; conditions: mouse, plasma, po, P.O., 10 mg/kg
Protocol: as §2, §3

[11] = po, 10 mg/kg, G2, PO, dissolved in a solvent
[12] = po, 10 mg/kg, G3, PO, powder state in a capsule
[13] = po, 5 mg/kg, P.O., 5 mg/kg (Exp. 11-2)
[14] = po, 10 mg/kg, 10 mg/kg (Exp. 12-2)
[15] = po, 10 mg/kg, oral 10 mg/kg in 0.5% MC (Exp. 15-1)
[16] = po, 10 mg/kg, oral 10 mg/kg in Vehicle: 5% DMSO, 40% PEG400 and 55% DW (Exp. 15-2)

Structure (SMILES): O[C@@H]1[C@H](O)CS[C@H]1n1cnc2c(NCc3cccc(Cl)c3)nc(Cl)nc21 [Example 2, (2R,3R,4S)-2-(2-Chloro-6-(3-chlorobenzylamino)-9H-purin-9-yl)tetrahydrothiophen-3,4-diol]
- pKa (pKa): 11.3
- fraction unbound [1]: 0.013
- Toxicity, Single-dose toxicity evaluation (rats [2]): Not detected
- solubility kinetic (Kinetic solubility): 361 µM and 149 µg/mL
- PAMPA (PAMPA): −4.49
- death after single dose (rats [3]): no animals died
- Plasma stability [4]: 98.9%
- AUC(0-inf) ([5]; iv, 2 mg/kg, G1, IV): 1070 ± 620 ng·h/mL
- AUC(0-t) ([5]; iv, 2 mg/kg, G1, IV): 948 ± 464 ng·h/mL
- half-life ([5]; iv, 2 mg/kg, G1, IV): 2.17 ± 0.867 h
- bioavailability ([5]; po, 10 mg/kg, G2, PO, 10 mg/kg, dissolved in a solvent): 82%
- AUC(0-inf) [5, 11]: 3990 ± 1090 ng·h/mL
- AUC(0-t) [5, 11]: 3880 ± 1030 ng·h/mL
- Cmax [5, 11]: 467 ± 73 ng/mL
- Tmax [5, 11]: 1.67 ± 0.58 h
- half-life [5, 11]: 4.21 ± 1.41 h
- bioavailability ([5]; po, 10 mg/kg, G3, PO, 10 mg/kg, powder state in a capsule): > 99.9%
- AUC(0-inf) [5, 12]: 6350 ± 830 ng·h/mL
- AUC(0-t) [5, 12]: 5640 ± 840 ng·h/mL
- Cmax [5, 12]: 1140 ± 230 ng/mL
- Tmax [5, 12]: 2 h
- half-life [5, 12]: 5.53 ± 3.06 h
- clearance ([5]; G1, IV, 2 mg/kg): 37.8 mL/min/kg
- Vd ([5]; G1, IV, 2 mg/kg, read-out: Vss): 6.02 ± 0.79 L/kg
- fraction unbound [6]: 0.098
- weight gain or feed intake vs control group (SPF Sprague Dawley rats): No difference in weight gain or feed intake
- death (SPF Sprague Dawley rats; 24 hrs observation): No death was observed
- Toxicity, Genotoxicity evaluation [7]: Not detected
- number of back-mutant colonies vs negative control group ([7]; all doses of each strain, with and without metabolic activation): did not exceed twice the number of back-mutant colonies of the negative control group
- Toxicity, Cytotoxicity evaluation (each cell line): Not detected
- IC50 (each cell line; each cell line): ≥ 10 µM
- clearance ([8]; iv, I.V., 5 mg/kg): 6.05 mL/min/kg
- Vd ([8]; iv, I.V., 5 mg/kg): 0.881 ± 0.203 L/kg
- bioavailability ([8]; po, P.O., 5 mg/kg): 49.7%
- clearance ([8]; IV, 2 mg/kg): 6.08 mL/min/kg
- Vd ([8]; IV, 2 mg/kg): 2.27 ± 0.863 L/kg
- bioavailability ([8]; PO, 10 mg/kg (Exp. 12-2)): > 99.9%
- AUC(0-inf) ([8]; iv, 2 mg/kg): 5490 ± 300 ng·h/mL
- AUC(0-t) ([8]; iv, 2 mg/kg): 5200 ± 548 ng·h/mL
- half-life ([8]; iv, 2 mg/kg, 2 mg/kg (Exp. 12-1)): 6 ± 2.98 h
- AUC(0-inf) ([8]; iv, 5 mg/kg, I.V.): 14100 ± 2590 ng·h/mL
- AUC(0-t) ([8]; iv, 5 mg/kg, I.V.): 14000 ± 2550 ng·h/mL
- half-life ([8]; iv, 5 mg/kg, I.V., 5 mg/kg (Exp. 11-1)): 3.6 ± 0.589 h
- AUC(0-inf) ([8]; po, 5 mg/kg, P.O.): 7040 ± 551 ng·h/mL
- AUC(0-t) ([8]; po, 5 mg/kg, P.O.): 6980 ± 584 ng·h/mL
- Cmax [8, 13]: 1450 ± 255 ng/mL
- Tmax [8, 13]: 1.33 ± 0.577 h
- half-life [8, 13]: 3.26 ± 0.945 h
- AUC(0-inf) [8, 14]: 26700 ± 75 ng·h/mL
- AUC(0-t) [8, 14]: 26500 ± 5880 ng·h/mL
- Cmax [8, 14]: 2710 ± 183 ng/mL
- Tmax [8, 14]: 2.42 ± 3.13 h
- half-life [8, 14]: 3.34 ± 0.075 h
- AUC(0-inf) [8, 15]: 41400 ± 26000 ng·h/mL
- AUC(0-t) [8, 15]: 40100 ± 26800 ng·h/mL
- Cmax [8, 15]: 5720 ± 6110 ng/mL
- Tmax [8, 15]: 1.33 ± 0.58 h
- half-life [8, 15]: 4.56 ± 2.8 h
- AUC(0-inf) [8, 16]: 26700 ± 75 ng·h/mL
- AUC(0-t) [8, 16]: 26500 ± 5880 ng·h/mL
- Cmax [8, 16]: 2710 ± 183 ng/mL
- Tmax [8, 16]: 2.42 ± 3.13 h
- half-life [8, 16]: 3.34 ± 0.075 h
- logP (Log P): 3.18
- solubility thermodynamic (Equilibrium solubility): 6.7 µM and 2.76 µg/mL
- Plasma stability [9]: > 99.9%
- Toxicity, hERG ligand binding assay evaluation (hERG channel protein): Not detected
- inhibition rate, hERG ligand binding (hERG channel protein; 10 μM of the compound): ≤ 50%
- weight gain or feed intake vs control group (ICR mice): No difference in weight gain or feed intake
- death (ICR mice; 24 hrs observation): No death was observed
- AUC(0-inf) [10]: 102000 ± 13500 ng·h/mL
- AUC(0-t) [10]: 100000 ± 13200 ng·h/mL
- Cmax [10]: 8570 ± 1520 ng/mL
- Tmax [10]: 6.13 ± 3.75 h
- half-life [10]: 3.61 ± 0.3 h

From patent US11266650B2, “Pharmaceutical composition for preventing and treating nonalcoholic steatohepatitis, hepatic fibrosis, and liver cirrhosis, comprising adenosine derivatives” (FUTURE MEDICINE CO., LTD., priority 2016, dated 2022)
